We go through one compound from patent US20100197602A1, “USE OF FOLLICULAR GONADOTROPIN RELEASING PEPTIDE AS A THERAPEUTIC AGENT IN THE TREATMENT OF STREPTOCOCCUS PNEUMONIAE INFECTION” (priority 2007, published 2010).

In the test the test system is drug-resistant Mycobacterium tuberculosis. The note with it: drug-resistant Mycobacterium tuberculosis (PAS, streptomycin, INH); peptide 10 micrograms per ml; seven days.

Each structure is given as a SMILES string. Residues, ends and D or L forms follow the SMILES beside them.

For `C[C@@H](O)[C@H](N)C(=O)N[C@@H](CC(=O)O)C(=O)N[C@H](C(=O)N[C@@H](CO)C(=O)N[C@@H](Cc1c[nH]cn1)C(=O)N[C@@H](Cc1c[nH]cn1)C(=O)N[C@@H](CC(=O)O)C(=O)N[C@@H](CCC(N)=O)C(=O)N[C@@H](CC(=O)O)C(=O)N[C@@H](Cc1c[nH]cn1)C(=O)N1CCC[C@H]1C(=O)N[C@H](C(=O)N[C@@H](Cc1ccccc1)C(=O)N[C@@H](CC(N)=O)C(=O)O)[C@@H](C)O)[C@@H](C)O` [FGRP, Thr-Asp-Thr-Ser-His-His-Asp-Gln-Asp-His-Pro-Thr-Phe-Asn-OH] (H-TDTSHHDQDHPTFN-OH), the “% inhibition” value is listed as 0.0%.
